Where “and” joins values, the source holds several entries; their conditions need not be identical. Equal entries are not always repeated. Where two headings read alike, the source gives them in different places. Where a SMILES comes first, the peptide text is derived from it. Primed or numbered codes have the meaning given here. Where no end group is shown, it is not given here. The star is where a group is joined. (18F)FB = [18F] fluorobenzoyl group, O=C(c1ccc([18F])cc1)*; (18F)FB″ = [18F]fluorobenzoyl, O=C(c1ccc([18F])cc1)*; Benzoyl(4-F) = O=C(c1ccc(F)cc1)*; FB = fluorobenzoyl
Legend:
DX3puroβ6 (αvβ6+) cells = experiment: [18F]-radiolabeled peptide cell binding and internalization, DX3puroβ6 (αvβ6+) cells; format: cell-based, human; conditions: for binding to DX3puroβ6 (αvβ6+) cells: % of total activity, 37° C.
[1] = 37° C., 1 hour, radio-HPLC
αvβ6 integrin = biological target: T1, αvβ6 integrin (Homo sapiens, UniProt P06756+P18564); experiment: Competitive binding ELISA against biotinylated LAP (BtLAP), αvβ6 integrin; conditions: for fold drop in affinity for αvβ6: compared to T1
T1 construct: All purified integrins were purchased from R&D Systems (MN, USA); purchased R&D Systems (MN, USA)
T1 sequence (P06756 31-992 limits assumed): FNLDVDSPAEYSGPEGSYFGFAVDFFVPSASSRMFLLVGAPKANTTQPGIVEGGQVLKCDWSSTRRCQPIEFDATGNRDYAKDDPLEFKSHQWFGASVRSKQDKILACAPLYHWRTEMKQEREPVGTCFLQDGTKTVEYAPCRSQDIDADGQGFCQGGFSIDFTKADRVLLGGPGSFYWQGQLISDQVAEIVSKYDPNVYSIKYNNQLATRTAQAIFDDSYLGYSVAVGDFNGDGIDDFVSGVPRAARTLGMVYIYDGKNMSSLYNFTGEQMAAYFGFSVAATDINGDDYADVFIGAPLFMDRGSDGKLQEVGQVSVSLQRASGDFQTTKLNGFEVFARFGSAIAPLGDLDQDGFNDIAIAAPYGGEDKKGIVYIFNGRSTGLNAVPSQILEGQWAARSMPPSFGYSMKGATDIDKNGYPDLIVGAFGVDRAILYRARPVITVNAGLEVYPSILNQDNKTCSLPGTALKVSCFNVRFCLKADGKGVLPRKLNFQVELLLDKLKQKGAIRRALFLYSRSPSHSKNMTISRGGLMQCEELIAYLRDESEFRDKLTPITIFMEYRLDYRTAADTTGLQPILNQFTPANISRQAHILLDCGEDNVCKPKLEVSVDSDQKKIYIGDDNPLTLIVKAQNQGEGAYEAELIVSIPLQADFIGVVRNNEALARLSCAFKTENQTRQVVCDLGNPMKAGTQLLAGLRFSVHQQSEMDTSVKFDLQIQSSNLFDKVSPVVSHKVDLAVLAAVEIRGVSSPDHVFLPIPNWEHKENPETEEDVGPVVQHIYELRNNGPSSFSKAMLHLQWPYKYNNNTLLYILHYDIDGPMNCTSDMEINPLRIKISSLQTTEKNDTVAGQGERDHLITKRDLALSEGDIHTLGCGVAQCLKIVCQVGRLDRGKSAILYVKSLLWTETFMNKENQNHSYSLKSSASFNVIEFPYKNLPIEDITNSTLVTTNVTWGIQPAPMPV
T1 sequence (P18564 22-707 limits assumed): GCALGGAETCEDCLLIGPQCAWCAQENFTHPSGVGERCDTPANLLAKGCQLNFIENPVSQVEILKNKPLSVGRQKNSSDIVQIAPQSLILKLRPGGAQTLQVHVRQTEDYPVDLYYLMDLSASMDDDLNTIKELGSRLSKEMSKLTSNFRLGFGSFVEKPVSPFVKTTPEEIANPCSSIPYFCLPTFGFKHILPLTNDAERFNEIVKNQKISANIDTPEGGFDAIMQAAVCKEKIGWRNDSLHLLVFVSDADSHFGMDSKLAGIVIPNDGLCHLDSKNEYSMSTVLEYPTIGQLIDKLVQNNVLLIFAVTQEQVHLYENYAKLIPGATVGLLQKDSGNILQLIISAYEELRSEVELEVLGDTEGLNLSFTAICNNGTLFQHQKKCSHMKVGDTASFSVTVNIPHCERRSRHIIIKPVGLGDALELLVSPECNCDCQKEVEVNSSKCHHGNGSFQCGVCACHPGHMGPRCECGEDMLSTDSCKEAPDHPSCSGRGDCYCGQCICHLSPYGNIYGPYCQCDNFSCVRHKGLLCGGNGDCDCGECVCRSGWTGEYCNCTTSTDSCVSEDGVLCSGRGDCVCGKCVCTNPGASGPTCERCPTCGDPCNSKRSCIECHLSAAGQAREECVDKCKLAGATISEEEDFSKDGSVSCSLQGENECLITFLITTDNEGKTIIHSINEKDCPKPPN

[2] = Circular dichroism (CD) spectroscopy; format: physicochemical; conditions: for % Helical Content CD Buffer: 25 mM phosphate + 100 mM NaF; for % Helical Content CD Buffer + 30% TFE: buffer with 30% trifluoroethanol

## CC(C)C[C@H](NC(=O)[C@H](Cc1ccc(O)cc1)NC(=O)[C@@H](NC(=O)[C@H](CC(C)C)NC(=O)[C@H](CC(=O)O)NC(=O)CNC(=O)[C@@H](NC(=O)CCOCCOCCOCCOCCOCCOCCOCCOCCOCCOCCOCCOCCOCCOCCOCCOCCOCCOCCOCCOCCOCCOCCOCCOCCOCCOCCOCCOCCNC(=O)c1ccc(F)cc1)C(C)C)[C@@H](C)O)C(=O)N[C@@H](CCCCN)C(=O)N[C@@H](CCC(N)=O)C(=O)N[C@@H](CCCCN)C(=O)N[C@H](C(=O)N[C@@H](C)C(=O)N[C@@H](CCCNC(=N)N)C(=O)N[C@H](C(=O)NCCOCCOCCOCCOCCOCCOCCOCCOCCOCCOCCOCCOCCOCCOCCOCCOCCOCCOCCOCCOCCOCCOCCOCCOCCOCCOCCOCCOCCC(N)=O)[C@@H](C)O)C(C)C [N-[^18F]T1-e]
DX3puroβ6 (αvβ6+) cells; 1 hour
  percent internalized relative to the amount bound to DX3puroβ6 (αvβ6+) cells: 25.7±2.2% and 25.7±2.7%
  binding to DX3puroβ6 (αvβ6+) cells: 1.5±0.1%
[1]
  intact peptide in mouse serum: > 99%
[1]; 60 min
  intact peptide in mouse serum: 100%

## CC(C)C[C@H](NC(=O)[C@H](CO)NC(=O)[C@H](CC(=O)O)NC(=O)[C@H](CC(C)C)NC(=O)[C@H](CC(=O)O)NC(=O)[C@@H](NC(=O)[C@H](CCCNC(=N)N)NC(=O)c1ccc(F)cc1)[C@@H](C)O)C(=O)N[C@@H](CCCNC(=N)N)C(=O)N[C@H](C(N)=O)[C@@H](C)O [RTD-9mer, reference compound]
DX3puroβ6 (αvβ6+) cells; cell binding, 1 hour
  DX3puroβ6 (αvβ6+)/DX3puro (αvβ6−) selectivity ratio: 1.7±0.2 :1
αvβ6 integrin
  IC50: 22 ± 3 nM
[2]
  % Helical Content CD Buffer: 2.7%
  % Helical Content CD Buffer + 30% TFE: 2.1%

## CC(C)C[C@H](NC(=O)[C@H](CO)NC(=O)[C@H](CC(=O)O)NC(=O)[C@H](CC(C)C)NC(=O)[C@H](CC(=O)O)NC(=O)[C@@H](NC(=O)[C@H](CCCNC(=N)N)NC(=O)c1ccc(F)cc1)[C@@H](C)O)C(=O)N[C@@H](CCCNC(=N)N)C(=O)N[C@@H](CCC(N)=O)C(=O)N[C@@H](CCCCN)C(=O)N[C@H](C(=O)N[C@@H](C)C(=O)N[C@@H](CCCNC(=N)N)C(=O)N[C@H](C(N)=O)[C@@H](C)O)C(C)C [RTD-14mer] ({Benzoyl(4-F)}-RTDLDSLRQKVART-NH2)
DX3puroβ6 (αvβ6+) cells
  DX3puroβ6 (αvβ6+)/DX3puro (αvβ6−) selectivity ratio: 9.1±0.8 :1
αvβ6 integrin
  IC50: 0.4 ± 0.1 nM
[2]
  % Helical Content CD Buffer: 18.1%
  % Helical Content CD Buffer + 30% TFE: 26.2%

## CC(C)C[C@H](NC(=O)[C@H](CCCNC(=N)N)NC(=O)CNC(=O)[C@H](CC(C)C)NC(=O)[C@H](CC(=O)O)NC(=O)CNC(=O)[C@H](CCCNC(=N)N)NC(=O)CNC(=O)c1ccc(F)cc1)C(N)=O [SFLAP3-8mer, reference compound] ({Benzoyl(4-F)}-GRGDLGRL-NH2)
DX3puroβ6 (αvβ6+) cells; cell binding, 1 hour
  DX3puroβ6 (αvβ6+)/DX3puro (αvβ6−) selectivity ratio: 1.4 ± 0.2:1
αvβ6 integrin
  IC50: 89 ± 6.5 nM
[2]
  % Helical Content CD Buffer: 11%
  % Helical Content CD Buffer + 30% TFE: 6.2%

## CC(C)C[C@H](NC(=O)[C@H](CC(=O)O)NC(=O)CNC(=O)[C@H](CCCNC(=N)N)NC(=O)CNC(=O)c1ccc(F)cc1)C(=O)NCC(=O)N[C@@H](CCCNC(=N)N)C(=O)N[C@@H](CC(C)C)C(=O)N[C@@H](C)C(=O)N[C@@H](CCC(N)=O)C(=O)N[C@@H](CCCCN)C(=O)N[C@H](C(=O)N[C@@H](C)C(=O)N[C@@H](CCCNC(=N)N)C(=O)N[C@H](C(N)=O)[C@@H](C)O)C(C)C [SFLAP3-15mer] ({Benzoyl(4-F)}-GRGDLGRLAQKVART-NH2)
DX3puroβ6 (αvβ6+) cells; cell binding, 1 hour
  DX3puroβ6 (αvβ6+)/DX3puro (αvβ6−) selectivity ratio: 3.9 ± 0.4:1
αvβ6 integrin
  IC50: 1.3 ± 0.2 nM
[2]
  % Helical Content CD Buffer: 13.4%
  % Helical Content CD Buffer + 30% TFE: 31.6%

## CC(C)C[C@H](NC(=O)[C@H](Cc1ccc(O)cc1)NC(=O)[C@@H](NC(=O)[C@H](CC(C)C)NC(=O)[C@H](CC(=O)O)NC(=O)CNC(=O)[C@@H](NC(=O)COCCOCCNC(=O)c1ccc(F)cc1)C(C)C)[C@@H](C)O)C(=O)N[C@@H](CCCCN)C(=O)N[C@@H](CCC(N)=O)C(=O)N[C@@H](CCCCN)C(=O)N[C@H](C(=O)N[C@@H](C)C(=O)N[C@@H](CCCNC(=N)N)C(=O)N[C@H](C(=O)NCCOCCOCCOCCOCCOCCOCCOCCOCCOCCOCCOCCOCCOCCOCCOCCOCCOCCOCCOCCOCCOCCOCCOCCOCCOCCOCCOCCOCCC(N)=O)[C@@H](C)O)C(C)C [T1-a]
αvβ6 integrin
  fold drop in affinity for αvβ6: 24 fold

## CC(C)C[C@H](NC(=O)[C@H](Cc1ccc(O)cc1)NC(=O)[C@@H](NC(=O)[C@H](CC(C)C)NC(=O)[C@H](CC(=O)O)NC(=O)CNC(=O)[C@@H](NC(=O)CCOCCOCCOCCOCCNC(=O)c1ccc(F)cc1)C(C)C)[C@@H](C)O)C(=O)N[C@@H](CCCCN)C(=O)N[C@@H](CCC(N)=O)C(=O)N[C@@H](CCCCN)C(=O)N[C@H](C(=O)N[C@@H](C)C(=O)N[C@@H](CCCNC(=N)N)C(=O)N[C@H](C(=O)NCCOCCOCCOCCOCCOCCOCCOCCOCCOCCOCCOCCOCCOCCOCCOCCOCCOCCOCCOCCOCCOCCOCCOCCOCCOCCOCCOCCOCCC(N)=O)[C@@H](C)O)C(C)C [T1-b]
αvβ6 integrin
  fold drop in affinity for αvβ6: 13 fold

## CC(C)C[C@H](NC(=O)[C@H](Cc1ccc(O)cc1)NC(=O)[C@@H](NC(=O)[C@H](CC(C)C)NC(=O)[C@H](CC(=O)O)NC(=O)CNC(=O)[C@@H](NC(=O)CCOCCOCCOCCOCCOCCOCCOCCOCCNC(=O)c1ccc(F)cc1)C(C)C)[C@@H](C)O)C(=O)N[C@@H](CCCCN)C(=O)N[C@@H](CCC(N)=O)C(=O)N[C@@H](CCCCN)C(=O)N[C@H](C(=O)N[C@@H](C)C(=O)N[C@@H](CCCNC(=N)N)C(=O)N[C@H](C(=O)NCCOCCOCCOCCOCCOCCOCCOCCOCCOCCOCCOCCOCCOCCOCCOCCOCCOCCOCCOCCOCCOCCOCCOCCOCCOCCOCCOCCOCCC(N)=O)[C@@H](C)O)C(C)C [T1-c]
αvβ6 integrin
  fold drop in affinity for αvβ6: 50 fold

## CC(C)C[C@H](NC(=O)[C@H](Cc1ccc(O)cc1)NC(=O)[C@@H](NC(=O)[C@H](CC(C)C)NC(=O)[C@H](CC(=O)O)NC(=O)CNC(=O)[C@@H](NC(=O)CCOCCOCCOCCOCCOCCOCCOCCOCCOCCOCCOCCOCCNC(=O)c1ccc(F)cc1)C(C)C)[C@@H](C)O)C(=O)N[C@@H](CCCCN)C(=O)N[C@@H](CCC(N)=O)C(=O)N[C@@H](CCCCN)C(=O)N[C@H](C(=O)N[C@@H](C)C(=O)N[C@@H](CCCNC(=N)N)C(=O)N[C@H](C(=O)NCCOCCOCCOCCOCCOCCOCCOCCOCCOCCOCCOCCOCCOCCOCCOCCOCCOCCOCCOCCOCCOCCOCCOCCOCCOCCOCCOCCOCCC(N)=O)[C@@H](C)O)C(C)C [T1-d]
αvβ6 integrin
  fold drop in affinity for αvβ6: 9 fold

## CC(C)C[C@H](NC(=O)[C@H](Cc1ccc(O)cc1)NC(=O)[C@@H](NC(=O)[C@H](CC(C)C)NC(=O)[C@H](CC(=O)O)NC(=O)CNC(=O)[C@@H](NC(=O)CCOCCOCCOCCOCCOCCOCCOCCOCCOCCOCCOCCOCCOCCOCCOCCOCCOCCOCCOCCOCCOCCOCCOCCOCCOCCOCCOCCOCCNC(=O)c1ccc(F)cc1)C(C)C)[C@@H](C)O)C(=O)N[C@@H](CCCCN)C(=O)N[C@@H](CCC(N)=O)C(=O)N[C@@H](CCCCN)C(=O)N[C@H](C(=O)N[C@@H](C)C(=O)N[C@@H](CCCNC(=N)N)C(=O)N[C@H](C(=O)NCCOCCOCCOCCOCCOCCOCCOCCOCCOCCOCCOCCOCCOCCOCCOCCOCCOCCOCCOCCOCCOCCOCCOCCOCCOCCOCCOCCOCCC(N)=O)[C@@H](C)O)C(C)C [T1-e]
αvβ6 integrin
  fold drop in affinity for αvβ6: 39 fold

## CC(C)C[C@H](NC(=O)[C@H](Cc1ccc(O)cc1)NC(=O)[C@@H](NC(=O)[C@H](CC(C)C)NC(=O)[C@H](CC(=O)O)NC(=O)CNC(=O)[C@@H](NC(=O)c1ccc(CNC(=O)CCOCCOCCOCCOCCOCCOCCOCCOCCOCCOCCOCCOCCOCCOCCOCCOCCOCCOCCOCCOCCOCCOCCOCCOCCOCCOCCOCCOCCNC(=O)c2ccc(F)cc2)cc1)C(C)C)[C@@H](C)O)C(=O)N[C@@H](CCCCN)C(=O)N[C@@H](CCC(N)=O)C(=O)N[C@@H](CCCCN)C(=O)N[C@H](C(=O)N[C@@H](C)C(=O)N[C@@H](CCCNC(=N)N)C(=O)N[C@H](C(=O)NCCOCCOCCOCCOCCOCCOCCOCCOCCOCCOCCOCCOCCOCCOCCOCCOCCOCCOCCOCCOCCOCCOCCOCCOCCOCCOCCOCCOCCC(N)=O)[C@@H](C)O)C(C)C [T1-g]
αvβ6 integrin; ELISA, compared to T1-e
  fold higher binding to αvβ6-integrin: 2 fold

## FB-RGDLQVLA ({FB}-RGDLQVLA) [A20-8mer, reference compound]
DX3puroβ6 (αvβ6+) cells; cell binding, 1 hour
  DX3puroβ6 (αvβ6+)/DX3puro (αvβ6−) selectivity ratio: 7.8±0.5 :1
[2]
  % Helical Content CD Buffer: 6.7%
  % Helical Content CD Buffer + 30% TFE: 6.9%

## FB-RGDLQVLAQKVART [A20-14mer, reference compound]
DX3puroβ6 (αvβ6+) cells; cell binding, 1 hour
  DX3puroβ6 (αvβ6+)/DX3puro (αvβ6−) selectivity ratio: 8.4±0.4 :1
[2]
  % Helical Content CD Buffer: 15.1%
  % Helical Content CD Buffer + 30% TFE: 35.7%

## [^18F]FB-RSDLTPLF ({(18F)FB}-RSDLTPLF) [N-[^18F]KL3]
DX3puroβ6 (αvβ6+) cells; 1 hour
  percent internalized relative to the amount bound to DX3puroβ6 (αvβ6+) cells: 23.5±4.7%
  binding to DX3puroβ6 (αvβ6+) cells: 0.7±0.2%

## [^18F]FB-RSDLTPLFQKVART ({(18F)FB″}-RSDLTPLFQKVART) [N-[^18F]KL3Q]
DX3puroβ6 (αvβ6+) cells; 1 hour
  percent internalized relative to the amount bound to DX3puroβ6 (αvβ6+) cells: 22.8±1.3%
  binding to DX3puroβ6 (αvβ6+) cells: 1.3±0.1%
DX3puroβ6 (αvβ6+) cells; compared to N-[18F]KL3
  fold increase in cell binding: 2 fold

## [^18F]FB-VGDLTYLKKKVART ({(18F)FB″}-VGDLTYLKKKVART) [N-[^18F]P1K-b]
DX3puroβ6 (αvβ6+) cells; 1 hour
  binding to DX3puroβ6 (αvβ6+) cells: 7.9±0.7%

## [^18F]FB-VGDLTYLKQKVART ({(18F)FB″}-VGDLTYLKQKVART) [N-[^18F]P1Q]
DX3puroβ6 (αvβ6+) cells; 1 hour
  percent internalized relative to the amount bound to DX3puroβ6 (αvβ6+) cells: 10.2±1.2%
  binding to DX3puroβ6 (αvβ6+) cells: 5.6±0.2% and 2.1±0.2% and 5.6%

## [^18F]FB-VGDLTYLKRKATVQ ({(18F)FB″}-VGDLTYLKRKATVQ) [N-[^18F]P1Q-Scrb]
DX3puroβ6 (αvβ6+) cells
  DX3puroβ6 (αvβ6+)/DX3puro (αvβ6−) selectivity ratio: 1.7±0.06 :1
DX3puroβ6 (αvβ6+) cells; 1 hour
  binding to DX3puroβ6 (αvβ6+) cells: 2.1±0.2%

Source: patent publication US11591369B2, “Alpha(v)beta(6) integrin-binding peptides and methods of use thereof” (priority 2018, dated 2023)
